Values quoted from earlier work, collected in patent US20110303570A1, “PACKAGE OF SOLID PHARMACEUTICAL PREPARATION” (Astellas Pharma Inc., priority 2009, published 2011).

Settings: administered either orally or directly into the colon of a mammal

Structure (SMILES): CC(OC(=O)NCC1(CC(=O)O)CCCCC1)OC(=O)C(C)C (stereo not drawn) [1-{[(α-isobutanoyloxyethoxy)carbonyl]aminomethyl}-1-cyclohexane acetic acid]
- Bioavailability as gabapentin: high
